US8415378B2, “Isoxazol-3(2H)-one analogs as therapeutic agents” (AstraZeneca AB, priority 2009, dated 2013)

Biological target: T1, human Glu-plasminogen (Homo sapiens, UniProt P00747)
T1 construct: human Glu-plasminogen; purchased Chromogenix, Italy
Experiment: Clot-lysis buffer assay
Assay type: biochemical
Method: The assay method used for evaluating biological activity of the compounds according to the invention was Clot-lysis buffer assay.
Tested substance were added to the reaction mixture in 10% DMSO. Reaction was started by the addition of thrombin.
Measured according to the Clot-lysis buffer assay described above.

T1 sequence (P00747 20-810 limits assumed): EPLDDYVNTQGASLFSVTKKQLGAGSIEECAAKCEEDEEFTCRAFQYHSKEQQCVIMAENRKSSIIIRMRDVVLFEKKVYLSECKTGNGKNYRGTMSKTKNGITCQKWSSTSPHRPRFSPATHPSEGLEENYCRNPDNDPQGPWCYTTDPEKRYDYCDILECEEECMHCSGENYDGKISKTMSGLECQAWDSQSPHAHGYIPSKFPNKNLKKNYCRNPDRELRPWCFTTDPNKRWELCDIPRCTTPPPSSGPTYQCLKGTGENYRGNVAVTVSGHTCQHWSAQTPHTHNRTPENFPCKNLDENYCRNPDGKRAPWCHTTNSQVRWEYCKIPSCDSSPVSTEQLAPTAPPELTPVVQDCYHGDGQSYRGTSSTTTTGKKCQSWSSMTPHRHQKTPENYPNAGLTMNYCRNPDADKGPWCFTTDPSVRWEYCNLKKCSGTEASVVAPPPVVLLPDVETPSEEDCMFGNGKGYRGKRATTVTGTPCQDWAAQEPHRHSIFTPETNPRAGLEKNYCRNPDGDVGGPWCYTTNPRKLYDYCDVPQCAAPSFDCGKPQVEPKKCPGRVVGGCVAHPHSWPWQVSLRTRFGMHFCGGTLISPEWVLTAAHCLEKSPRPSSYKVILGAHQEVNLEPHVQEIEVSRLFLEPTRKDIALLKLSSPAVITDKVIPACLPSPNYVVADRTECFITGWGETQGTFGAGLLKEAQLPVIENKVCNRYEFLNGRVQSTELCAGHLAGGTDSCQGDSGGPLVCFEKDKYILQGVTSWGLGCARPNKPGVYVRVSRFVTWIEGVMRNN

IC50 | Structure (SMILES)
2.2 µM | O=c1cc([C@H]2CCN[C@@H](c3cc(F)c(Cl)c(F)c3)C2)o[nH]1 [Example 65, 5-((2R,4S)-2-(4-Chloro-3,5-difluorophenyl)piperidin-4-yl)isoxazol-3(2H)-one]
2.35 µM | O=c1cc([C@H]2CCN[C@@H](c3ccc(Cl)cc3F)C2)o[nH]1 [Example 45, 5-((2R,4S)-2-(4-Chloro-2-fluorophenyl)piperidin-4-yl)isoxazol-3(2H)-one]
10.2 µM | O=c1cc([C@@H]2CCN[C@@H](Cc3c(F)cccc3F)C2)o[nH]1 (relative stereo) [Example 129, 5-(Trans-2-(2,6-difluorobenzyl)piperidin-4-yl)isoxazol-3(2H)-one]
4.6 µM | O=c1cc([C@@H]2CCN[C@@H](CCc3ccc(F)cc3)C2)o[nH]1 (relative stereo) [Example 94, 5-(Trans-2-(4-fluorophenethyl)piperidin-4-yl)isoxazol-3(2H)-one]
372 µM | O=c1cc([C@@H]2CCN[C@@H](c3ccc(Cl)cc3Cl)C2)o[nH]1 [Example 54, 5-((2R,4R)-2-(2,4-Dichlorophenyl)piperidin-4-yl)isoxazol-3(2H)-one]
1.6 µM | Cn1nnc([C@H]2C[C@@H](c3cc(=O)[nH]o3)CCN2)n1 [Example 81, 5-((2R,4S)-2-(2-Methyl-2H-tetrazol-5-yl)piperidin-4-yl)isoxazol-3(2H)-one]
31.4 µM | O=c1cc([C@@H]2CCN[C@H](Cc3c(F)cccc3F)C2)o[nH]1 [Example 128, 5-((2S,4R)-2-(2,6-Difluorobenzyl)piperidin-4-yl)isoxazol-3(2H)-one]
81.1 µM | Cc1cc([C@@H]2C[C@H](c3cc(=O)[nH]o3)CCN2)ccc1C(F)(F)F [Example 68, 5-((2S,4R)-2-(3-Methyl-4-(trifluoromethyl)phenyl)piperidin-4-yl)isoxazol-3(2H)-one]
70.5 µM | O=c1cc([C@@H]2CCN[C@H](Cc3cccc(C(F)(F)F)c3)C2)o[nH]1 [Example 108, 5-((2S,4R)-2-(3-(Trifluoromethyl)benzyl)piperidin-4-yl)isoxazol-3(2H)-one]
2.25 µM | CC(C)(C)c1ccc(C[C@H]2C[C@@H](c3cc(=O)[nH]o3)CCN2)cc1 [Example 12, 5-((2R,4S)-2-(4-tert-Butylbenzyl)piperidin-4-yl)isoxazol-3(2H)-one]
69.1 µM | O=c1cc([C@@H]2CCN[C@H](Cc3ccc(F)cc3F)C2)o[nH]1 [Example 135, 5-((2S,4R)-2-(2,4-Difluorobenzyl)piperidin-4-yl)isoxazol-3(2H)-one]
2.1 µM | O=c1cc([C@H]2CCN[C@@H](c3ccc(OC(F)(F)F)cc3F)C2)o[nH]1 [Example 58, 5-((2R,4S)-2-(2-Fluoro-4-(trifluoromethoxy)phenyl)piperidin-4-yl)isoxazol-3(2H)-one]
88.8 µM | O=c1cc([C@@H]2CCN[C@@H](Cc3ccc(C(F)(F)F)cc3)C2)o[nH]1 [Example 106, 5-((2R,4R)-2-(4-(Trifluoromethyl)benzyl)piperidin-4-yl)isoxazol-3(2H)-one]
1.4 µM | O=c1cc([C@H]2CCN[C@@H](c3ccc(F)cc3Cl)C2)o[nH]1 [Example 47, 5-((2R,4S)-2-(2-Chloro-4-fluorophenyl)piperidin-4-yl)isoxazol-3(2H)-one]
1.1 µM | O=c1cc([C@H]2CCN[C@@H](Cc3ccc(OC(F)(F)F)cc3)C2)o[nH]1 [Example 113, 5-((2R,4S)-2-(4-(Trifluoromethoxy)benzyl)piperidin-4-yl)isoxazol-3(2H)-one]
7.2 µM | O=c1cc([C@H]2CCN[C@H](Cc3ccc(C(F)(F)F)cc3)C2)o[nH]1 [Example 105, 5-((2S,4S)-2-(4-(Trifluoromethyl)benzyl)piperidin-4-yl)isoxazol-3(2H)-one]
5.5 µM | O=c1cc([C@@H]2CCN[C@@H](Cc3ccccc3C(F)(F)F)C2)o[nH]1 (relative stereo) [Example 112, 5-(Trans-2-(2-(trifluoromethyl)benzyl)piperidin-4-yl)isoxazol-3(2H)-one]
0.7 µM | O=c1cc([C@H]2CCN[C@@H](c3cccc(C(F)(F)F)c3)C2)o[nH]1 [Example 30, 5-((2R,4S)-2-(3-(Trifluoromethyl)phenyl)piperidin-4-yl)isoxazol-3(2H)-one]
1.8 µM | O=c1cc([C@@H]2CCN[C@@H](Cc3ccc(C(F)(F)F)c(F)c3)C2)o[nH]1 (relative stereo) [Example 142, 5-(Trans-2-(3-fluoro-4-(trifluoromethyl)benzyl)piperidin-4-yl)isoxazol-3(2H)-one]
1.5 µM | O=c1cc([C@H]2CCN[C@@H](c3ccc(C(F)(F)F)nc3)C2)o[nH]1 [Example 40, 5-((2R,4S)-2-(6-(Trifluoromethyl)pyridin-3-yl)piperidin-4-yl)isoxazol-3(2H)-one]
2.5 µM | O=c1cc([C@H]2CCN[C@@H](c3ccc(F)cc3)C2)o[nH]1 [Example 25, 5-((2R,4S)-2-(4-Fluorophenyl)piperidin-4-yl)isoxazol-3(2H)-one]

IC50 | Structure (SMILES)
2.5 µM | O=c1cc([C@H]2CCN[C@@H](c3cc(F)c(C(F)(F)F)c(F)c3)C2)o[nH]1 [Example 70, 5-((2R,4S)-2-(3,5-Difluoro-4-(trifluoromethyl)phenyl)piperidin-4-yl)isoxazol-3(2H)-one]
88.2 µM | O=c1cc([C@@H]2CCN[C@H](Cc3cc(F)c(F)c(F)c3)C2)o[nH]1 [Example 144, 5-((2S,4R)-2-(3,4,5-Trifluorobenzyl)piperidin-4-yl)isoxazol-3(2H)-one]
20.3 µM | Cn1nnc([C@H]2C[C@H](c3cc(=O)[nH]o3)CCN2)n1 (relative stereo) [Example 82, 5-(Trans-2-(2-methyl-2H-tetrazol-5-yl)piperidin-4-yl)isoxazol-3(2H)-one]
7.1 µM | O=c1cc([C@@H]2CCN[C@@H](c3cc(F)c(F)c(F)c3)C2)o[nH]1 (relative stereo) [Example 62, 5-(Trans-2-(3,4,5-trifluorophenyl)piperidin-4-yl)isoxazol-3(2H)-one]
3.22 µM | O=c1cc([C@H]2CCN[C@@H](c3cc(F)c(F)cc3F)C2)o[nH]1 [Example 63, 5-((2R,4S)-2-(2,4,5-Trifluorophenyl)piperidin-4-yl)isoxazol-3(2H)-one]
190 µM | O=c1cc([C@@H]2CCN[C@H](c3ccc(C(F)(F)F)c(F)c3)C2)o[nH]1 [Example 76, 5-((2S,4R)-2-(3-Fluoro-4-(trifluoromethyl)phenyl)piperidin-4-yl)isoxazol-3(2H)-one]
10.7 µM | O=c1cc([C@H]2CCN[C@@H](C(F)F)C2)o[nH]1 [Example 87, 5-((2R,4S)-2-(Difluoromethyl)piperidin-4-yl)isoxazol-3(2H)-one]
3.3 µM | O=c1cc([C@H]2CCN[C@@H](C3CCCCC3)C2)o[nH]1 [Example 79, 5-((2R,4S)-2-Cyclohexylpiperidin-4-yl)isoxazol-3(2H)-one]
10.7 µM | CS(=O)(=O)c1ccc(C[C@H]2C[C@H](c3cc(=O)[nH]o3)CCN2)cc1 (relative stereo) [Example 119, 5-(Trans-2-(4-(methylsulfonyl)benzyl)piperidin-4-yl)isoxazol-3(2H)-one]
120 µM | O=c1cc([C@@H]2CCN[C@H](Cc3ccc(F)c(F)c3)C2)o[nH]1 [Example 121, 5-((2S,4R)-2-(3,4-Difluorobenzyl)piperidin-4-yl)isoxazol-3(2H)-one]
15.6 µM | O=c1cc([C@@H]2CCN[C@@H](COC3CCCCC3)C2)o[nH]1 (relative stereo) [Example 86, 5-(Trans-2-(cyclohexyloxymethyl)piperidin-4-yl)isoxazol-3(2H)-one]
72.9 µM | O=c1cc([C@H]2CCN[C@H](c3ccc(Cl)cc3Cl)C2)o[nH]1 [Example 53, 5-((2S,4S)-2-(2,4-Dichlorophenyl)piperidin-4-yl)isoxazol-3(2H)-one]
225 µM | CS(=O)(=O)c1ccc(C[C@@H]2C[C@H](c3cc(=O)[nH]o3)CCN2)cc1 [Example 118, 5-((2S,4R)-2-(4-(Methylsulfonyl)benzyl)piperidin-4-yl)isoxazol-3(2H)-one]
40.9 µM | O=c1cc([C@@H]2CCN[C@@H](c3ccc(C(F)(F)F)nc3)C2)o[nH]1 (relative stereo) [Example 41, 5-(Trans-2-(6-(trifluoromethyl)pyridin-3-yl)piperidin-4-yl)isoxazol-3(2H)-one]
5.3 µM | O=c1cc([C@@H]2CCN[C@@H](c3ccc(Cl)c(F)c3)C2)o[nH]1 (relative stereo) [Example 50, 5-(Trans-2-(4-chloro-3-fluorophenyl)piperidin-4-yl)isoxazol-3(2H)-one]
1.6 µM | CC(C)(C[C@@H]1C[C@@H](c2cc(=O)[nH]o2)CCN1)c1ccccc1 [Example 18, 5-((2S,4S)-2-(2-Methyl-2-phenylpropyl)piperidin-4-yl)isoxazol-3(2H)-one]
0.85 µM | O=c1cc([C@H]2CCN[C@@H](Cc3ccc(F)cc3F)C2)o[nH]1 [Example 134, 5-((2R,4S)-2-(2,4-Difluorobenzyl)piperidin-4-yl)isoxazol-3(2H)-one]
23.6 µM | O=c1cc([C@@H]2CCN[C@@H](c3cccc(C(F)(F)F)c3)C2)o[nH]1 (relative stereo) [Example 32, 5-(Trans-2-(3-(trifluoromethyl)phenyl)piperidin-4-yl)isoxazol-3(2H)-one]
42.8 µM | O=c1cc([C@@H]2CCN[C@@H](c3ccc(F)c(F)c3)C2)o[nH]1 (relative stereo) [Example 24, 5-(Trans-2-(3,4-difluorophenyl)piperidin-4-yl)isoxazol-3(2H)-one]
0.89 µM | O=c1cc([C@H]2CCN[C@@H](Cc3ccc(F)c(F)c3)C2)o[nH]1 [Example 120, 5-((2R,4S)-2-(3,4-Difluorobenzyl)piperidin-4-yl)isoxazol-3(2H)-one]
858 µM | O=c1cc([C@@H]2CCN[C@H](c3cc(F)c(F)c(F)c3)C2)o[nH]1 [Example 61, 5-((2S,4R)-2-(3,4,5-Trifluorophenyl)piperidin-4-yl)isoxazol-3(2H)-one]
